Numbered stars: 1 amine (or outer) side, 2 acyl side, 3 side chain; on linkers, the order of the positions; unused ones are H or OH. Square brackets hold non-standard residues; d marks the D form. Side chains are listed from the residue outwards. * marks the point of attachment. γGlu = O=C(O)[C@H](CCC(=O)[*:2])N[*:1]; Palmitoyl = CCCCCCCCCCCCCCCC(=O)*; Aib = CC(C)(N)C(=O)O

Experiment [1] deals with db/db (BKS.Cg-m+/+Lepr^db/J) female mice. The experiment is described as follows: 21-day s.c. treatment of db/db mice: body weight, food and water intake. The class given is in vivo. Particulars: 21 days, bi-daily s.c., Lantus 3 U, Levemir 6 U, Compound X 10 nmol/kg, vs. vehicle (FIG. 1). From the text: Eighty (80) db/db (BKS.Cg-m+/+Lepr^db/J) female mice aged 7 weeks were obtained from Charles River, US. The mice were acclimatized in their new environment and allowed free access to normal chow (Altromin 1324, Brogaarden A/S, Gentofte, Denmark) and domestic quality tap water added citric acid to pH ˜3.6, except as indicated. The mice were group-housed with 3-4 mice per cage in a light-, temperature-, and humidity-controlled room (12-hour light: 12-hour dark cycle, with lights on at 06.00 AM to 06.00 PM hour; 24° C.; 50% relative humidity).
Prior to treatment, in weeks 1-3, a tail-blood sample for the determination of blood glucose was obtained on non-fasted animals to determine diabetic state and to identify outliers, which were excluded. The inclusion criteria of BG>16 mM glucose was applied.
Stratification of the animals was based on HbA1c levels (primary) and BW as measured at baseline (day −4). Thus, on day −3, the 66 mice were selected based on the pre-screen and baseline measurements into 6 study groups of 11 mice (3-4 mice/cage).
All mice were mock treated for at 3 days (BID, SC, 100 μl vehicle) to acclimatize the animals to handling and injections. Dosing (day 0, mice at age 12 weeks as in pilot study) started in the afternoon on that day, and the mice were treated twice daily with 2 SC injections according to Table 1 for a total of 21 days (4 injections per day). Thus, last day of dosing was day 21 in the morning. The daily injections took place between 7:00 and 8:00 and between 14:00 and 15:00 with fresh solutions prepared in the morning (only Compound X). […]
Dosing solutions of Compound X for the weekend were prepared the Friday before. […] Throughout the study (day −2 to day 21) body weights (8W) were recorded daily and used to administer the body weight-corrected doses of substances. Food and water intake (FI, WI) was measured every day (day −3 to day 21) as cage averages.
In Vivo: female db/db mice aged 10-11 weeks were treated for 21 days with bi-daily s.c. injections. […] Fasting blood glucose (BG) was measured before and after 21 days of treatment.

For experiment [2] the test system is unchanged. Description: 21-day s.c. treatment of db/db mice: fasting blood glucose (delta-BG). The experiment is classed as in vivo. Particulars: fasted female db/db mice, over 21 days of bi-daily s.c. treatment; Lantus 3 U, Levemir 6 U, Compound X 10 nmol/kg; average +/- SEM (FIG. 4). The method, then: All mice were mock treated for at 3 days (BID, SC, 100 μl vehicle) to acclimatize the animals to handling and injections. Dosing (day 0, mice at age 12 weeks as in pilot study) started in the afternoon on that day, and the mice were treated twice daily with 2 SC injections according to Table 1 for a total of 21 days (4 injections per day). Thus, last day of dosing was day 21 in the morning. The daily injections took place between 7:00 and 8:00 and between 14:00 and 15:00 with fresh solutions prepared in the morning (only Compound X). Insulin was kept in the refrigerator. […]
On day 21 (before termination) in 8 h fasted mice a blood sample (350 μl) was taken, and BG, HbA1c, and p-insulin were measured as described above. […]
The whole blood glucose level was analyzed on tail-blood samples by the immobilized glucose oxidase method (Elite Auto analyser, Bayer, Denmark) following the manufacturer's protocol. Blood samples (sample size 30 μl) were analyzed for HbA1c using the Cobas c111 analyzer (Roche Diagnostics, Mannheim, Germany) in single determinations by Department of Molecular Pharmacology. Plasma (sample size 5 μl) and insulin content was measured using an insulin alpha-LISA assay in triplicate by Department of Molecular Pharmacology. A measure of peptide exposure in plasma (sample size 100 μl) will be determined by the Department of Bioanalysis and Pharmacokinetics. […]

As to Insulin detemir [Levemir], in experiment [1], the “body weight (BW) change” value was “significant increase”. The “delta-BG (delta-Blood Glucose)” value in experiment [2] was -2.1 ± 1.6 mM. Taken in the same sequence, the figures for Insulin glargine [Lantus] were “significant increase” and -9.6 ± 1.9 mM. As to “H-H-Aib-QGTFTSDYSKYLDS-K(Hexadecanoyl-isoGlu)-AAHDFVEWLLSA-NH2 (H-H[Aib]QGTFTSDYSKYLDSK([γGlu-Palmitoyl])AAHDFVEWLLSA-NH2; SMILES CCCCCCCCCCCCCCCC(=O)N[C@@H](CCC(=O)NCCCC[C@H](NC(=O)[C@H](CO)NC(=O)[C@H](CC(=O)O)NC(=O)[C@H](CC(C)C)NC(=O)[C@H](Cc1ccc(O)cc1)NC(=O)[C@H](CCCCN)NC(=O)[C@H](CO)NC(=O)[C@H](Cc1ccc(O)cc1)NC(=O)[C@H](CC(=O)O)NC(=O)[C@H](CO)NC(=O)[C@@H](NC(=O)[C@H](Cc1ccccc1)NC(=O)[C@@H](NC(=O)CNC(=O)[C@H](CCC(N)=O)NC(=O)C(C)(C)NC(=O)[C@@H](N)Cc1c[nH]cn1)[C@@H](C)O)[C@@H](C)O)C(=O)N[C@@H](C)C(=O)N[C@@H](C)C(=O)N[C@@H](Cc1c[nH]cn1)C(=O)N[C@@H](CC(=O)O)C(=O)N[C@@H](Cc1ccccc1)C(=O)N[C@H](C(=O)N[C@@H](CCC(=O)O)C(=O)N[C@@H](Cc1c[nH]c2ccccc12)C(=O)N[C@@H](CC(C)C)C(=O)N[C@@H](CC(C)C)C(=O)N[C@@H](CO)C(=O)N[C@@H](C)C(N)=O)C(C)C)C(=O)O) [Compound X, acylated glucagon analogue, glucagon-GLP-1 dual agonist]”, the “body weight (BW) change” value in experiment [1] is “significant decrease”.

(Values after patent US20160000883A1, “COMBINATION OF ACYLATED GLUCAGON ANALOGUES WITH INSULIN ANALOGUES” (ZEALAND PHARMA A/S, priority 2011, published 2016).)
